Laboratory results published in patent US9808003B2, “Herbicidally active 2-(substituted-phenyl)-cyclopentane-1,3-dione compounds and derivatives thereof” (Syngenta Limited, priority 2013, dated 2017).

Columns and labels:
Assay in all cases: Test 1A glasshouse assay, post-emergence herbicidal activity
Assay type in all cases: in vivo
[1] = test system: Alopecurus myosuroides (ALOMY); conditions: Alopecurus myosuroides, 312 h, application rate 250 g/ha, 13 days after application, visual (100%=total damage; 0%=no damage), read-out: Post-emergence Herbicidal Activity (% Phytotoxicity) ALOMY
Summary of the method: (§1)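 Pots sown in standard soil; plants grown 8 days in glasshouse (24/16 °C day/night, 14 h light, 65% humidity), then sprayed with compound formulated in acetone/water (50:50) with 0.5% Tween 20. Regrown under same conditions, watered twice daily; visual % phytotoxicity scored 13 days after application (0 = none, 100 = total damage).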

Lolium perenne (LOLPE) = conditions: Lolium perenne, 312 h, application rate 250 g/ha, 13 days after application, visual (100%=total damage; 0%=no damage), read-out: Post-emergence Herbicidal Activity (% Phytotoxicity) LOLPE
Summary of the method: as §1

[2] = test system: Echinochloa crus-galli (ECHCG); conditions: Echinochloa crus-galli, 312 h, application rate 250 g/ha, 13 days after application, visual (100%=total damage; 0%=no damage), read-out: Post-emergence Herbicidal Activity (% Phytotoxicity) ECHCG
Summary of the method: as §1

Avena fatua (AVEFA) = conditions: Avena fatua, 312 h, application rate 250 g/ha, 13 days after application, visual (100%=total damage; 0%=no damage), read-out: Post-emergence Herbicidal Activity (% Phytotoxicity) AVEFA
Summary of the method: as §1

Structure (SMILES)	pest or weed control at 250 g/ha [1]	pest or weed control at 250 g/ha (Lolium perenne (LOLPE))	pest or weed control at 250 g/ha [2]	pest or weed control at 250 g/ha (Avena fatua (AVEFA))
Cc1cc(C)c(C2C(=O)CC(CCNC(=O)c3ncc(F)cc3Br)C2=O)c(C)c1 (stereo not drawn) [Compound A187]	90%	100%	100%	90%
Cc1cc(C)c(C2C(=O)CC(CCNC(=O)c3ccc(OC(F)F)cn3)C2=O)c(C)c1 (stereo not drawn) [Compound A188]	100%	100%	100%	100%
Cc1cc(C)c(C2C(=O)CC(CCNC(=O)c3ncc(Cl)cc3F)C2=O)c(C)c1 (stereo not drawn) [Compound A189]	100%	100%	100%	100%
Cc1cc(C)c(C2C(=O)CC(CCNC(=O)c3ccc(C=C(F)F)cn3)C2=O)c(C)c1 (stereo not drawn) [Compound A190]	80%	90%	90%	90%
Cc1cc(-n2cc(Cl)cn2)cc(C)c1C1C(=O)CC(CCNC(=O)c2nc(Br)ccc2F)C1=O (stereo not drawn) [Compound A191]	100%	90%	100%	100%
CC#Cc1ccc(C(=O)NCCC2CC(=O)C(c3c(C)cc(C)cc3C)C2=O)nc1 (stereo not drawn) [Compound A192]	80%	100%	100%	90%
Cc1cc(C)c(C2C(=O)CC(CCNC(=O)c3nc(Br)ccc3F)C2=O)c(C)c1 (stereo not drawn) [Compound A193]	90%	100%	90%	90%
Cc1cc(C)c(C2C(=O)CC(CCNC(=O)c3nccnc3Cl)C2=O)c(C)c1 (stereo not drawn) [Compound A194]	80%	90%	100%	90%
Cc1cc(C)c(C2C(=O)CC(CCNC(=O)c3cnc(Cl)cn3)C2=O)c(C)c1 (stereo not drawn) [Compound A195]	30%	60%	80%	30%
Cc1cc(C)c(C2C(=O)CC(CCNC(=O)c3cncc(Cl)n3)C2=O)c(C)c1 (stereo not drawn) [Compound A196]	80%	90%	100%	90%
Cc1cc(Br)cc(Br)c1C1C(=O)CC(CCNC(=O)c2ccccn2)C1=O (stereo not drawn) [Compound A197]	90%	60%	100%	70%
Cc1cc(-c2cc(Cl)cc(Cl)c2)cc(C)c1C1C(=O)CC(CCNC(=O)c2ccccn2)C1=O (stereo not drawn) [Compound A203]	80%	80%	100%	100%
Cc1ccc(-c2cc(C)c(C3C(=O)CC(CCNC(=O)c4ccccn4)C3=O)c(C)c2)cc1 (stereo not drawn) [Compound A204]	90%	100%	100%	90%
Cc1cc(C)c(C2C(=O)CC(CCNC(=O)c3snc(Cl)c3Cl)C2=O)c(C)c1 (stereo not drawn) [Compound A212]	30%	70%	70%	50%
Cc1cc(C)c(C2C(=O)CC(CCNC(=O)c3sc(Cl)nc3C(F)(F)F)C2=O)c(C)c1 (stereo not drawn) [Compound A213]	10%	60%	50%	10%
COC(=O)OC(C)OC1=C(c2c(C)cc(C)cc2C)C(=O)C(CCNC(=O)c2ccc(Br)cn2)C1 (stereo not drawn) [Compound P3]	90%	100%	100%	100%
CCSC(=O)OC1=C(c2c(C)cc(C)cc2C)C(=O)CC1CCNC(=O)c1ccc(Br)cn1 (stereo not drawn) [Compound P10]	100%	100%	100%	100%
CCOC(=O)OC1=C(c2c(C)cc(C)cc2C)C(=O)C(CCNC(=O)c2ccc(Br)cn2)C1 (stereo not drawn) [Compound P11]	100%	100%	100%	100%
